Values quoted from earlier work as cited in US20070191377A1, “Methods for treating blood disorders with nitric oxide donor compounds” (NitroMed, Inc., priority 2004, published 2007).

Structure (SMILES): O=[N+]([O-])O[C@H]1CO[C@H]2[C@@H]1OC[C@H]2O[N+](=O)[O-] [isosorbide dinitrate, 1,4,3,6-dianhydro-D-glucitol-2,5-dinitrate]
- solubility in organic solvents (organic solvents such as ethanol, ether and chloroform): freely soluble
- solubility in water (water): sparingly soluble
